Results published in US20110251158A1, “FULLERENE THERAPIES FOR INFLAMMATION AND INHIBITION OF BUILD-UP OF ARTERIAL PLAQUE” (Luna Innovations Incorporated, priority 2008, published 2011).
Values joined by “and” are separate entries in the source; they are usually repeats but may differ in a detail not shown here. Equal values may be shown once.

Test system: Mast cells (MC)
Test: Anti-FcεRI-induced MC degranulation (β-hexosaminidase release)
Type: cell-based, human
Conditions: for Mean percent degranulation, TGA + XL: TGA Treatment @ 10 μg/ml, Exp 1-5 and Average (±SD)
Procedure: MC are a component of the inflammatory response. As such, cultures of human Mast Cells can be used for screening the activity of different fullerene derivatives to evaluate their potential activity in animal models. In this example, human skin tissue was received from the Cooperative Human Tissue Network and MC purified and cultured as described in Kepley, C. L. Int. Arch. Allergy Immunol. 138, 29-39 (2005). The MC were cultured in media containing stem cell factor which is removed from the culture 24 hours prior to experimentation.
For activation, MC were suspended in fresh medium (without cytokines) and incubated for 16 hours with or without fullerene derivatives at 37° C. in a 6% CO2 incubator. […] The next morning, cells were washed and stimulated with anti-FcεRI Abs (3B4; 1 μg/ml) for 30 minutes (β-hexosaminidase) or overnight (GM-CSF) at 37° C. in a 6% CO2 incubator and mediator release measured as described in Zhao, W., Kepley, C. L., Morel, P. A., Okumoto, L. M., Fukuoka, Y., and Schwartz, L. B. J Immunol. 177, 694-701 (2006). All MC mediator release studies were performed in triplicate.
Cells were cultured with fixed concentrations of a fullerene derivative (10 μg/ml; FIGS. 8A and 9A) or different concentrations (FIGS. 8B and 9B) for 16 h, washed and stimulated for 30 min (FIGS. 8A and 8B) or 24 hours (FIGS. 9A and 9B) with optimal concentrations of αanti-FcεRI Abs (3B4; 1 μg/ml). Cells were centrifuged and β-hexosaminidase release and GMCSF levels determined by ELISA.

C70-tetraglycolic acid [TGA]
Mean percent degranulation, TGA + XL: 52.7% and 39.1% and 50.1% and 53.4% and 40.1%
Mean percent degranulation, TGA + XL (mean): 47.1 (±6.9) percent
IC50 (degranulation) (maximum inhibition set to 100%): 10.9 (±3.5) μg/ml
